Reference: patent US5300629A, “Bactericidal and/or bacteriostatic peptides isolated from hemolymph of honeybees” (Plant Genetic Systems, N.V., priority 1987, dated 1994)
Where a SMILES comes first, the peptide text is derived from it.

Key:
Assay type in all cases: cell-based
[1] = test system: Pseudomonas aeruginosa ATCC 7700; test: Inhibition zone assay; parameters: key: --: "-" means that no inhibition has been found
Proteus mirabilis AU 87 = test: Inhibition zone assay; parameters: key: --: "-" means that no inhibition has been found; conditions: I and B 10 ul
[2] = test system: Pseudomonas syringae pv. tabaci NCPPB 1237; test: Inhibition zone assay; parameters: key: --: "-" means that no inhibition has been found; conditions: * synthetic ApidIa and heattreated immune lymph instead of Bee6 and native immune lymph
[3] = test system: Corynebacterium diphteriae HB 11 t1; test: Inhibition zone assay; parameters: key: --: "-" means that no inhibition has been found; conditions: I 10 ul
[4] = test system: Pseudomonas syringae pv. maculicola NCPPB 1776; test: Inhibition zone assay; parameters: key: --: "-" means that no inhibition has been found; conditions: * synthetic ApidIa and heattreated immune lymph instead of Bee6 and native immune lymph
[5] = test system: Enterobacter agglomerans Gilardi 1081; test: Inhibition zone assay; parameters: key: --: "-" means that no inhibition has been found; conditions: I and B 10 ul, L 5 ug
Klebsiella oxytoca KO2 = test: Inhibition zone assay; parameters: key: --: "-" means that no inhibition has been found
[6] = test system: Staphylococcus hominis STH B3; test: Inhibition zone assay; parameters: key: --: "-" means that no inhibition has been found; conditions: L 5 ug
[7] = test system: Micrococcus lysodeikticus LMG 4050; test: Inhibition zone assay; parameters: key: --: "-" means that no inhibition has been found; conditions: I and B 10 ul, L 5 ug
[8] = test system: Erwinia salicis NCPPB 2530; test: Inhibition zone assay; parameters: key: --: "-" means that no inhibition has been found; conditions: I and B 10 ul, L 5 ug
[9] = test system: Salmonella Montevideo 80/141; test: Inhibition zone assay; parameters: key: --: "-" means that no inhibition has been found; conditions: I and B 10 ul
Salmonella Newport CD 94 = test: Inhibition zone assay; parameters: key: --: "-" means that no inhibition has been found; conditions: I 10 ul
[10] = test system: Haemophilus influenzae NCTC 7279; test: Inhibition zone assay; parameters: key: --: "-" means that no inhibition has been found; conditions: I and B 10 ul
[11] = test system: Azospirillum brasilliense ATCC 29145; test: Inhibition zone assay; parameters: key: --: "-" means that no inhibition has been found
[12] = test system: Agrobacterium radiobacter ATCC 19358; test: Inhibition zone assay; parameters: key: --: "-" means that no inhibition has been found; conditions: I and B 10 ul, L 5 ug
[13] = test system: Neisseria mucosa ATCC 25999; test: Inhibition zone assay; parameters: key: --: "-" means that no inhibition has been found; conditions: I 10 ul
Salmonella Wien 83/16 = test: Inhibition zone assay; parameters: key: --: "-" means that no inhibition has been found; conditions: I and B 10 ul
[14] = test system: Pseudomonas cepacia ATCC 25416; test: Inhibition zone assay; parameters: key: --: "-" means that no inhibition has been found; conditions: I and B 10 ul, L 5 ug
[15] = test system: Rhizobium phaseoli CIAT 899; test: Inhibition zone assay; parameters: key: --: "-" means that no inhibition has been found; conditions: I and B 10 ul, L 5 ug
Streptococci = test: Growth-inhibition zone assay
[16] = test system: Flavobacterium devorans NRRL B-54; test: Inhibition zone assay; parameters: key: --: "-" means that no inhibition has been found; conditions: I and B 10 ul, L 5 ug
[17] = test system: Bacillus thuringiensis DSM 3131; test: Inhibition zone assay; parameters: key: --: "-" means that no inhibition has been found; conditions: I and B 10 ul, L 5 ug
[18] = test system: Proteus morganii CuETM 77-83; test: Inhibition zone assay; parameters: key: --: "-" means that no inhibition has been found; conditions: I and B 10 ul, L 5 ug
Bacillus cereus LMG 2098 = test: Inhibition zone assay; parameters: key: --: "-" means that no inhibition has been found
[19] = test system: Azospirillum lipoferum ATCC 29707; test: Inhibition zone assay; parameters: key: --: "-" means that no inhibition has been found; conditions: I and B 10 ul, L 5 ug
[20] = test system: Acinetobacter calcoaceticus MON 108; test: Inhibition zone assay; parameters: key: --: "-" means that no inhibition has been found
[21] = test system: Pseudomonas solanacearum ATCC 11696; parameters: key: --: "-" means that no inhibition has been found; conditions: * synthetic ApidIa and heattreated immune lymph instead of Bee6 and native immune lymph
[22] = test system: Lactobacillus acidophilus ATCC 4336; test: Inhibition zone assay; parameters: key: --: "-" means that no inhibition has been found; conditions: I 10 ul
[23] = test system: Salmonella enteritidis 83/34; test: Inhibition zone assay; parameters: key: --: "-" means that no inhibition has been found; conditions: I and B 10 ul
[24] = test system: Bacillus megaterium QMB 1551; test: Inhibition zone assay; parameters: key: --: "-" means that no inhibition has been found; conditions: I and B 10 ul, L 5 ug
[25] = test system: Serratia plymuthica ATCC 183; test: Inhibition zone assay; parameters: key: --: "-" means that no inhibition has been found; conditions: I and B 10 ul, L 5 ug
[26] = test system: Corynebacterium insidiosum NCPPB 1109; test: Inhibition zone assay; conditions: I and B 10 ul, L 5 ug
Protocol: Whole lymph or purified components, resuspended in PBS to a final volume equal to the starting material (heated lymph), was applied in 3 mm wells on agar plates seeded with the test organisms. Antibacterial activity was determined by measuring the growth-inhibition zones (in mm).

[27] = test system: Rhizobium meliloti ZB 314; test: Inhibition zone assay; conditions: I and B 10 ul, L 5 ug
[28] = test system: Erwinia amylovora NCPPB 638; test: Inhibition zone assay
[29] = test system: Enterobacter cloacae LMG 2783; test: Inhibition zone assay; parameters: key: --: "-" means that no inhibition has been found; conditions: I and B 10 ul
[30] = test system: Janthinobacterium lividum Sneath HB; test: Inhibition zone assay; parameters: key: --: "-" means that no inhibition has been found; conditions: I and B 10 ul, L 5 ug
[31] = test system: Pseudomonas syringae pv. tomato NCPPB 1106; test: Inhibition zone assay; parameters: key: --: "-" means that no inhibition has been found; conditions: * synthetic ApidIa and heattreated immune lymph instead of Bee6 and native immune lymph

CC[C@H](C)[C@H](NC(=O)[C@H](CCCCN)NC(=O)[C@@H]1CCCN1C(=O)[C@H](CC(N)=O)NC(=O)[C@H](Cc1ccccc1)NC(=O)[C@@H]1CCCN1C(=O)CNC(=O)[C@H](CCC(N)=O)NC(=O)CNC(=O)[C@@H]1CCCN1C(=O)[C@H](Cc1ccccc1)NC(=O)[C@@H](NC(=O)[C@@H]1CCCN1C(=O)[C@H](Cc1ccccc1)NC(=O)[C@@H]1CCCN1C(=O)[C@H](CCCNC(=N)N)NC(=O)[C@H](CCCNC(=N)N)NC(=O)CNC(=O)[C@@H]1CCCN1C(=O)[C@H](CCC(N)=O)NC(=O)[C@@H]1CCCN1C(=O)[C@@H](NC(=O)[C@H](CC(N)=O)NC(=O)[C@@H]1CCCN1C(=O)[C@H](CC(C)C)NC(=O)[C@@H]1CCCN1C(=O)[C@@H](NC(=O)[C@@H](N)Cc1ccc(O)cc1)C(C)C)C(C)C)[C@@H](C)O)C(=O)N[C@@H](CCCCN)C(=O)N[C@@H](Cc1c[nH]c2ccccc12)C(=O)N1CCC[C@H]1C(=O)N[C@@H](CCC(N)=O)C(=O)NCC(=O)N[C@@H](Cc1ccc(O)cc1)C(=O)O [bee 9] (H-YVPLPNVPQPGRRPFPTFPGQGPFNPKIKWPQGY-OH)
diameter of growth-inhibition zone [1]: -- | diameter of growth-inhibition zone (Proteus mirabilis AU 87): -- | diameter of growth-inhibition zone [2]: -- | diameter of growth-inhibition zone [3]: -- | diameter of growth-inhibition zone [4]: -- | diameter of growth-inhibition zone [5]: -- | diameter of growth-inhibition zone (Klebsiella oxytoca KO2): -- | diameter of growth-inhibition zone [6]: -- | diameter of growth-inhibition zone [7]: -- | diameter of growth-inhibition zone [8]: -- | diameter of growth-inhibition zone [9]: -- | diameter of growth-inhibition zone (Salmonella Newport CD 94): -- | diameter of growth-inhibition zone [10]: -- | diameter of growth-inhibition zone [11]: -- | diameter of growth-inhibition zone [12]: -- | diameter of growth-inhibition zone [13]: -- | diameter of growth-inhibition zone (Salmonella Wien 83/16): -- | diameter of growth-inhibition zone [14]: -- | diameter of growth-inhibition zone [15]: -- | susceptibility, in words (Streptococci): resistant | diameter of growth-inhibition zone [16]: -- | diameter of growth-inhibition zone [17]: -- | diameter of growth-inhibition zone [18]: -- | diameter of growth-inhibition zone (Bacillus cereus LMG 2098): -- | diameter of growth-inhibition zone [19]: -- | diameter of growth-inhibition zone [20]: -- | diameter of growth-inhibition zone [21]: -- | diameter of growth-inhibition zone [22]: -- | diameter of growth-inhibition zone [23]: -- | diameter of growth-inhibition zone [24]: -- | diameter of growth-inhibition zone [25]: -- | diameter of growth-inhibition zone [26]: 7 mm | diameter of growth-inhibition zone [27]: 4 mm | diameter of growth-inhibition zone [28]: 5 mm | diameter of growth-inhibition zone [29]: -- | diameter of growth-inhibition zone [30]: -- | diameter of growth-inhibition zone [31]: --
